Laboratory results from ChEMBL document CHEMBL1201862, “PubChem BioAssay data set” (2004).
Active and inactive are the calls of the source.

Tests used:
[1] = biological target: T1, Replicative DNA helicase DnaB (Mycobacterium tuberculosis, UniProt P9WMR3); assay: DnaB intein splicing inhibitors, dose response, biochemical, cell-free fluorescence (AID 449749); assay type: functional
T1 sequence (P9WMR3 whole entry): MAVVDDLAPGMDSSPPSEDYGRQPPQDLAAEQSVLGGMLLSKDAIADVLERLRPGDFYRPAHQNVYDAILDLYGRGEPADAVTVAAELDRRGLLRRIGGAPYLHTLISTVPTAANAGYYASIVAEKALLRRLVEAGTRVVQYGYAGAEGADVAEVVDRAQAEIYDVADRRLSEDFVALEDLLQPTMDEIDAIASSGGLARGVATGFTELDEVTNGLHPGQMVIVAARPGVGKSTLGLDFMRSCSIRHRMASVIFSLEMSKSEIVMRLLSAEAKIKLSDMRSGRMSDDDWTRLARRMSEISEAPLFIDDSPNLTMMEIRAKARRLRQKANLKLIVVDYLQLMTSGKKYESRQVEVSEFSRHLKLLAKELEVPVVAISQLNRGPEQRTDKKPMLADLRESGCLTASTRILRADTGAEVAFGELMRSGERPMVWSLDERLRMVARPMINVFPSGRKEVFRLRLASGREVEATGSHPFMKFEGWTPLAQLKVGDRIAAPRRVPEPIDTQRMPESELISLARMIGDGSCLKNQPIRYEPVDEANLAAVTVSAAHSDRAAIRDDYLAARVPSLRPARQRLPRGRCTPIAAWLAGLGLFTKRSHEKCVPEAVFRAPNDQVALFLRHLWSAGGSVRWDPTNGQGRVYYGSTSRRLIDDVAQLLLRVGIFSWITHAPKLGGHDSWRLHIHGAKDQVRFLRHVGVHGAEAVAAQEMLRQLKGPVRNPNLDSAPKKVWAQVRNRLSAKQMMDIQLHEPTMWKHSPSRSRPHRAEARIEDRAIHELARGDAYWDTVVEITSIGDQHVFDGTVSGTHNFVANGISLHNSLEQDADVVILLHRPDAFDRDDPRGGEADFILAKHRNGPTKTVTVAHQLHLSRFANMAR

Protein RecA = biological target: T2, Protein RecA (Mycobacterium tuberculosis, UniProt P9WHJ3); assay: Fluorescence Cell-Free Homogeneous Dose Retest to Identify Inhibitors of RecA-Intein Splicing Activity. [Related pubchem assays (depositor defined):AID2097, AID2223, AID489010, AID492950]; assay type: functional
T2 sequence (P9WHJ3 whole entry): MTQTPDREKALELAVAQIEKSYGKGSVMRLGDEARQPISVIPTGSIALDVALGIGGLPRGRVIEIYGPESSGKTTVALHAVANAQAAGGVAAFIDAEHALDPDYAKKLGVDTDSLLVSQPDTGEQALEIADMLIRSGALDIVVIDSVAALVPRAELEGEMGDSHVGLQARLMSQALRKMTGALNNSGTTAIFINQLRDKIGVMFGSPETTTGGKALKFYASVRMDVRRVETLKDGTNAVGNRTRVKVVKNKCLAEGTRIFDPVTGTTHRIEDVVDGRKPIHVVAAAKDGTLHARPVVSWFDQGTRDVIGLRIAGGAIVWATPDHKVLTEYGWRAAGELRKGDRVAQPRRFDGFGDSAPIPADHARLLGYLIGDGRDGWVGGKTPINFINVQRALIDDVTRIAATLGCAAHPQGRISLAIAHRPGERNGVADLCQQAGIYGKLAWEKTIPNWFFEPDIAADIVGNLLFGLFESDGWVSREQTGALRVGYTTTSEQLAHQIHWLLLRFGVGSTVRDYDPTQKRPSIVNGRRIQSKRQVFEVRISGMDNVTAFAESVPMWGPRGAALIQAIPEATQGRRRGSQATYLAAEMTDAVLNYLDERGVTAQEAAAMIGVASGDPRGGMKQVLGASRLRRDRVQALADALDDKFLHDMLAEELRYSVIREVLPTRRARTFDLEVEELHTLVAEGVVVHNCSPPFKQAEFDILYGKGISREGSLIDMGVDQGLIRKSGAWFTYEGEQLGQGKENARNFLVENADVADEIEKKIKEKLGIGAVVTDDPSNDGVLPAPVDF

Cytochrome P450 2C19 = Cytochrome P450 2C19 (Homo sapiens, UniProt P33261); assay: Cytochrome panel assay with activity outcomes. Panel member name: p450-cyp2c19 Compounds with AC50 equal or less than 10 uM are considered active; assay type: functional
Cytochrome P450 2D6 = Cytochrome P450 2D6 (Homo sapiens, UniProt P10635);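 note: CYP2D6 member of a cytochrome P450 panel assay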
Cytochrome P450 3A4 = Cytochrome P450 3A4 (Homo sapiens, UniProt P08684);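 note: CYP3A4 tested as one member of a cytochrome P450 panel screen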
Cytochrome P450 1A2 = biological target: T3, Cytochrome P450 1A2 (Homo sapiens, UniProt P05177);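 note: PubChem cytochrome P450 panel assay, CYP1A2 panel member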
T3 sequence (P05177 whole entry): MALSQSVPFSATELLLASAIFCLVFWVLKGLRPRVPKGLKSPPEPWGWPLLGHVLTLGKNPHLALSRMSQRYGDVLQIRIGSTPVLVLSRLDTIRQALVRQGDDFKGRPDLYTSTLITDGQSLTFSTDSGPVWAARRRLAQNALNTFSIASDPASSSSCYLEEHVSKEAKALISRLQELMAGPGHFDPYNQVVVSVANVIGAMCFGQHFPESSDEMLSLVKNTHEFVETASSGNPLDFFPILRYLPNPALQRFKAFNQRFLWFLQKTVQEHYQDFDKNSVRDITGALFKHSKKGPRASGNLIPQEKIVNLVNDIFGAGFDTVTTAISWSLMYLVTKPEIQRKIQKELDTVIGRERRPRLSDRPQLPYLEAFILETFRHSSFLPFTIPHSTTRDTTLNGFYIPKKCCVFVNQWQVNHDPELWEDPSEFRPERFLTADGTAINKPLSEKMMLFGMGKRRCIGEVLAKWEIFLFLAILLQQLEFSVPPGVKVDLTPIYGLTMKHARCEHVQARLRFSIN

[2] = Trypanosoma cruzi growth suppression in host cells – NIH3T3 host cells, beta-gal luminescence, confirmation (AID 2044); assay type: functional, cell-based;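 note: intracellular parasites grown in NIH/3T3 mouse fibroblasts as host cells; luminescent beta-galactosidase reporter signal from transgenic T. cruzi replicating inside host cells; inhibitors lower the luminescence signal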
[3] = NIH3T3 cell viability loss – ATP luminescence, mouse fibroblasts, counter-screen, dose response (AID 2010); assay type: functional, cell-based;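 note: cells exposed to compound for about 90 hours before reading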
[4] = biological target: T4, Corticotropin-releasing factor receptor 2/Corticotropin-releasing factor-binding protein (Homo sapiens, UniProt P24387+Q13324); assay: activators of CRF receptor 2 with binding protein – uHTS hits, confirmation (AID 602473); assay type: functional; details: read-out: EC50_Mean
T4 sequence (Q13324 whole entry): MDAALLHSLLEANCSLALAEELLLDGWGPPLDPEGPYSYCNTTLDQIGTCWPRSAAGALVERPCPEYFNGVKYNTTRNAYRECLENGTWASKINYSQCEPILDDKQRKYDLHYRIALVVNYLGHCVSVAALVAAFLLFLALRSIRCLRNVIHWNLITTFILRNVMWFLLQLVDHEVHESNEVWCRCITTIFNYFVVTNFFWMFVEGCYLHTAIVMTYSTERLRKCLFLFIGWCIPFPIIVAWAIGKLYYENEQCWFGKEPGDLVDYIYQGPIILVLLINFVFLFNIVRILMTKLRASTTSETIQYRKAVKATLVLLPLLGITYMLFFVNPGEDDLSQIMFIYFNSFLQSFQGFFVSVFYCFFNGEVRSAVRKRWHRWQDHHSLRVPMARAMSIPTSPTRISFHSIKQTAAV
T4 sequence (P24387 whole entry): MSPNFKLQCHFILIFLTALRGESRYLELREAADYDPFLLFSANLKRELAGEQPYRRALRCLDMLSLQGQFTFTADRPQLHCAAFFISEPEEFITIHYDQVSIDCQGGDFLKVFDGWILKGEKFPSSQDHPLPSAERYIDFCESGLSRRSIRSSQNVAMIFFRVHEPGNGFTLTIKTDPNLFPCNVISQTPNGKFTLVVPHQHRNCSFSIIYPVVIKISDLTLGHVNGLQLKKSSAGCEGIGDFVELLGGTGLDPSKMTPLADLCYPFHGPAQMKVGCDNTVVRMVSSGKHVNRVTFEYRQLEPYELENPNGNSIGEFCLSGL

Cytochrome P450 2D6, sequence (P10635 whole entry): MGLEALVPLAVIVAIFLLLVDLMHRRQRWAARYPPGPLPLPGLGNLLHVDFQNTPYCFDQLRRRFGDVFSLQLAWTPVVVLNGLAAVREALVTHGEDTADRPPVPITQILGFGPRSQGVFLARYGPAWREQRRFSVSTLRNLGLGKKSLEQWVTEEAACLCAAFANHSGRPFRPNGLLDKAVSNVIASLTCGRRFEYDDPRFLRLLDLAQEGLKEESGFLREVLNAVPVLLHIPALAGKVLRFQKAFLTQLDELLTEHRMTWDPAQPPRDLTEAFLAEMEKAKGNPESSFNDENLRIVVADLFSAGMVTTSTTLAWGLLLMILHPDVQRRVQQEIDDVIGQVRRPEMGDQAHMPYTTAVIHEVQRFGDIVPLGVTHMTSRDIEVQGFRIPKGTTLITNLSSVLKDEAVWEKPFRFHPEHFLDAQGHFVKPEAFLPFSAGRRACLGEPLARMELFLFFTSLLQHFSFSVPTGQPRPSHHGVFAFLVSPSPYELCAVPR
Cytochrome P450 2C19, sequence (P33261 whole entry): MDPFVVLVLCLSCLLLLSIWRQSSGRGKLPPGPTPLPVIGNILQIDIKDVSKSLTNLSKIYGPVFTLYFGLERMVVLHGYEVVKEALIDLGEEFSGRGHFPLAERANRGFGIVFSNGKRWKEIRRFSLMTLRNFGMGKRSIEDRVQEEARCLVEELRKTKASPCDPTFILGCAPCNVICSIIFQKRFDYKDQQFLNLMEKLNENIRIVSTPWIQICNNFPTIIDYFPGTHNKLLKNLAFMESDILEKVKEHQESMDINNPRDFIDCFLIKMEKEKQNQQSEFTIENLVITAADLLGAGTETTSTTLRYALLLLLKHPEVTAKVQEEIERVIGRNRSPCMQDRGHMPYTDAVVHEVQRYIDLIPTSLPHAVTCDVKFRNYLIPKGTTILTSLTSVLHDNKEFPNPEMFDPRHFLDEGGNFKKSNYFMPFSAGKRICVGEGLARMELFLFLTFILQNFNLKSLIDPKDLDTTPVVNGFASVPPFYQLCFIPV
Cytochrome P450 3A4, sequence (P08684 whole entry): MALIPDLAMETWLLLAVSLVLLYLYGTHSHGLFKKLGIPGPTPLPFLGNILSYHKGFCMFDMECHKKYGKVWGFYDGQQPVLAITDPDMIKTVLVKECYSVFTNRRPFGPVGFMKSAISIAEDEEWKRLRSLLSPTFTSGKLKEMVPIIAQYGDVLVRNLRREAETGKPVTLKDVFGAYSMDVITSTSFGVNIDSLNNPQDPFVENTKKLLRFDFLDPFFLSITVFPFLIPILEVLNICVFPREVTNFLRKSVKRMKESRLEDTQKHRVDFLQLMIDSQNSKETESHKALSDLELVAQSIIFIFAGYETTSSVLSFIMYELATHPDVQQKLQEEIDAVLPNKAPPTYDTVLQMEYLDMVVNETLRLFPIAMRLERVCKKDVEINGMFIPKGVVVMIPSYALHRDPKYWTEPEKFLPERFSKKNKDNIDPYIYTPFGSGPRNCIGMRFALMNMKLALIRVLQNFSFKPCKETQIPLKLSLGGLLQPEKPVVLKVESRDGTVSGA

CCOC(=O)CSCCOc1ccc(C=C2C(=O)NC(=O)NC2=O)cc1OC
AC50 [1]: 46.6 µM (active)
EC50 (Protein RecA): > 380 µM (inactive)

N#CC1(C#N)CC(C=O)=C(N)C1(C#N)CC(=O)C12CC3CC(CC(C3)C1)C2 (stereo not drawn)
AC50 [1]: > 380 µM (inactive)
EC50 (Protein RecA): 10 µM (active)

CN1CCN(c2ncc3nc(CCc4ccccc4)c(=O)n(Cc4cccs4)c3n2)CC1
AC50 (Cytochrome P450 2C19; read-out: AC50): 39.8 µM (inconclusive)
AC50 (Cytochrome P450 2D6): 20 µM (inconclusive)
AC50 (Cytochrome P450 3A4): 12.6 µM (inconclusive)

COC(=O)[C@@]1(Cc2ccccc2)[C@H]2c3cc(C(=O)N4CCCC4)n(Cc4cccc5ccccc45)c3C[C@H]2CN1C(=O)c1ccccc1
AC50 (Cytochrome P450 1A2): 15.8 µM (inconclusive)

c1cncc(CNc2ncn[nH]2)c1
AC50 (Cytochrome P450 2C19): inconclusive

O=C(Nc1ccccc1)N1CCCC2(CCN(S(=O)(=O)c3ccccc3)CC2)C1
AC50 (Cytochrome P450 2D6): 15.8 µM (inconclusive)
AC50 (Cytochrome P450 1A2): 15.8 µM (inconclusive)
AC50 (Cytochrome P450 3A4): 5.01 µM (inconclusive)

CCN(CC)C(=O)C1=C(C)N=C(S)NC1c1cn(-c2ccccc2)nc1-c1ccc(Cl)cc1 (stereo not drawn)
AC50 (Cytochrome P450 2C19; read-out: AC50): 17.8 µM (inconclusive)
AC50 (Cytochrome P450 1A2): 28.2 µM (inconclusive)

N#Cc1c(SCC(N)=O)nsc1SCc1ccccc1Cl
AC50 (Cytochrome P450 1A2): 4.47 µM (inconclusive)
AC50 (Cytochrome P450 3A4): 10 µM (inconclusive)

O=C(Nc1cccc(F)c1)N1CC[C@@]2(CCCN(C(=O)c3ccco3)C2)C1
AC50 (Cytochrome P450 1A2): 25.1 µM (inconclusive)
AC50 (Cytochrome P450 3A4): 10 µM (inconclusive)

CC1(C)[C@@H]2CC[C@]1(C)[C@@H](OC(=O)/C=C\c1ccccc1)C2
AC50 (Cytochrome P450 2C19; read-out: AC50): 0.00398 µM (inconclusive)

C=CC[C@@H](C(=O)O)c1ccccc1
AC50 (Cytochrome P450 2C19): inconclusive

CCOc1ccc(CN(C)C(=O)CCl)cc1
AC50 [1]: > 380 µM (inactive)
EC50 (Protein RecA): 4.09 µM (active)

Cc1ccc(C(=O)NC(C#N)=C(Cl)Cl)cc1
AC50 [1]: 27.1 µM (active)
EC50 (Protein RecA): 19.5 µM (active)

CCC(CC)C(=O)Nc1c2c(nn1-c1ccc(OC)cc1)CS(=O)(=O)C2
AC50 (Cytochrome P450 2C19; read-out: AC50): 35.5 µM (inconclusive)
AC50 (Cytochrome P450 3A4): 25.1 µM (inconclusive)

CCCCNC(=O)CCn1c(=S)[nH]c2cc3c(cc2c1=O)OCO3
AC50 (Cytochrome P450 2C19; read-out: AC50): 3.55 µM (inconclusive)

CC(C)Cn1c(N)c(S(=O)(=O)c2cccs2)c2nc3ccccc3nc21
AC50 [1]: > 380 µM (inactive)
EC50 (Protein RecA): 32.9 µM (inconclusive)

CCOC(=O)N1C(=O)[C@](c2ccc(Cl)cc2)(C(C)C)N1C(=O)OCC
AC50 [1]: 3.09 µM (active)
EC50 (Protein RecA): 3.34 µM (active)

C[C@@H](C(=O)O)c1ccc(C[C@@H]2CCCC2=O)cc1
AC50 (Cytochrome P450 2C19): inconclusive

COC(=O)c1ccccc1Oc1c(F)c(F)nc(N2CCOCC2)c1F
AC50 (Cytochrome P450 2D6): 35.5 µM (inconclusive)
AC50 (Cytochrome P450 1A2): 28.2 µM (inconclusive)

Cc1ccc2nc(Nc3ccccc3O)nc(-c3ccccc3)c2c1
AC50 (Cytochrome P450 2C19; read-out: AC50): 2.24 µM (inconclusive)
AC50 (Cytochrome P450 2D6): 3.55 µM (inconclusive)
AC50 (Cytochrome P450 3A4): 35.5 µM (inconclusive)

Cc1cc(C(=O)CCl)c(C)n1CC1COc2ccccc2O1 (stereo not drawn)
EC50 [2]: 1.81 µM (active)
EC50 [3]: 4.42 µM (active)
AC50 [1]: 21.7 µM (active)
EC50 (Protein RecA): 13.5 µM (active)

Cc1ccc(C2CC(c3cccs3)=NN2C(=O)CSC2=NCCS2)cc1 (stereo not drawn)
AC50 [1]: 6.2 µM (active)
EC50 (Protein RecA): 6.68 µM (active)

NS(=O)(=O)c1cc2c(cc1Cl)N[C@H](Cc1ccccc1)NS2(=O)=O
AC50 (Cytochrome P450 1A2): 3.16 µM (inconclusive)

Cn1cc(-c2nc3cnc(Oc4cccc(Cl)c4)nc3n(C3CC3)c2=O)c2ccccc21
AC50 (Cytochrome P450 1A2): 12.6 µM (inconclusive)

Cc1nn(-c2ccccc2)c2c1C(c1ccc(F)cc1F)C(C#N)=C(N)O2 (stereo not drawn)
AC50 [1]: 7.25 µM (active)
EC50 (Protein RecA): 3.5 µM (active)

CC(C)[C@@H]1[C@H]2CC[C@H](C2)[C@H]1N
AC50 (Cytochrome P450 1A2): 31.6 µM (inconclusive)
AC50 (Cytochrome P450 3A4): 15.8 µM (inconclusive)

CN1CCN(c2ncc3nc(-c4cccs4)c(=O)n(CCC#N)c3n2)CC1
AC50 (Cytochrome P450 1A2): 15.8 µM (inconclusive)
AC50 (Cytochrome P450 3A4): 31.6 µM (inconclusive)

COc1ccc(N(C(=O)c2ccco2)S(=O)(=O)c2cccs2)cc1
AC50 [1]: 38.1 µM (active)
EC50 (Protein RecA): 32.6 µM (active)

N#Cc1ccc(CC(=O)c2ccccc2)[nH]c1=O
EC50 [4]: 12.2 µM (active)

Cc1ccc(C2(c3ccc(C)c(O)c3C)CCN(C)CC2)c(C)c1O
AC50 (Cytochrome P450 1A2): 5.01 µM (inconclusive)

Cn1c(CN2CCOCC2)nnc1SCc1ccccc1
AC50 (Cytochrome P450 2C19; read-out: AC50): 20 µM (inconclusive)

CCOc1cc(NC(=O)c2ccccc2[N+](=O)[O-])c(OCC)cc1NC(=O)CC(C)C
AC50 (Cytochrome P450 2C19; read-out: AC50): 0.0112 µM (inconclusive)

O=C(Cc1cc(O)n[nH]1)N/N=C/c1ccccc1[N+](=O)[O-]
AC50 [1]: 4.19 µM (active)
EC50 (Protein RecA): 1.73 µM (active)

Cc1ccsc1/C=N/NC(=O)Cc1cc(O)[nH]n1
AC50 [1]: 1.68 µM (active)
EC50 (Protein RecA): 1.28 µM (active)

CN1CCC(n2[nH]c(-c3ccccc3)c(Cc3ccccc3)c2=O)CC1 [BENZPIPERYLON]
AC50 (Cytochrome P450 2D6): 3.16 µM (inconclusive)
AC50 (Cytochrome P450 1A2): 1.58 µM (inconclusive)
